Assay [1] relates to IL-7 signalling (pStat5) in Ba/F3-IL7R cells. The experiment in a line: IL-7-induced phospho-Stat5 in Ba/F3-IL7R cells (phosphoflow). Particulars: Ba/F3-IL7R cells; result in words. In kind it is cell-based, murine. On the procedure:
(§1) Ba/F3 cells (kindly provided by a person from The Walter and Eliza Hall Institute of Medical Research) were infected with pMIG-R1/Il7r retroviral supernatants produced in 293T cells, and transduced cells were sorted with a BD Influx (BD Australia) and selected by culture in medium supplemented with 5 ng/mL rmIL-7 (#217-17, Pepro Tech, Rocky Hill NJ, USA) for 7 days. Ba/F3 cells stably expressing Il7r (Ba/F3-IL7R) were infected with TxTCPVIR-Stat5-CA retroviral supernatants produced in 293T. Cell sorting was performed with a BD Influx and transduced cells were treated with doxycycline for 48 h to induce the expression of the Stat5-CA-T2A-mCherry fusion protein.
Phosphoflow analysis was performed as previously described. Briefly, 2 × 10^6 cells stained for surface markers were subsequently resuspended into PBS 1× + 4% v/v paraformaldehyde and incubated for 10 min at 4 °C for fixation. Fixed cells were washed twice using PBS 1×, then resuspended in pre-chilled at −20 °C Perm Buffer III (BD Pharmingen) and incubated 30 min at 4 °C for permeabilization. Cells were washed twice using PBS 1× and incubated overnight at 4 °C in PBS 1× + 2% v/v fetal calf serum (FCS) with Cell Signalling purified antibodies (Genesearch Pty Ltd, Arundel QLD, Australia) against pSTAT5 (Tyr694; #9359), phospho-p38 MAPK (Thr180/Tyr182; #4511), phospho-p44/42 (Erk1/2; #9102), phospho-S6 (Ser235/236; #4856) and phospho-Akt (Ser473; #9271) or isotype control. For intracellular HES1 detection, cells stained for surface markers were subsequently fixed and permeabilized using the BD Cytofix/Cytoperm^TM Kit and incubated overnight at 4 °C in PBS 1× + 2% v/v FCS with a purified antibody against HES1 (D6PU; #11988, Cell Signalling) or isotype control. After staining with primary antibodies for phosphoflow or intracellular detection, cells were incubated in permeabilization buffer with donkey Alexa Fluor 488-conjugated anti-rabbit secondary antibody (A-21206, lot #1910751, Molecular Probes, Invitrogen) or goat Alexa Fluor 546-conjugated anti-rabbit secondary antibody (A-11035, lot #1904467, Molecular Probes, Invitrogen) for 1 h on ice, and washed twice in PBS 1×. Fluorescence-activated cell sorting (FACS) analysis was performed using LSRII and LSR Fortessa cytometers, following the gating strategies described in Supplementary Fig. 11. Cell sorting was performed with a FACSAria or BD Influx.
For in vitro IL-7 stimulation assays, cells were starved in serum-free DMEM at 37 °C, then incubated with either vehicle or Dynole 34-2 or Ruxolitinib (INCB018424; #S1378, Selleckchem), or DAPT (GSI-IX; #S2215, Selleckchem) resuspended in DMSO for 1 h. Thymocytes were subsequently stimulated with 25 ng/mL IL-7 at 37 °C for 20 min and washed twice using cold PBS 1×. Cells were incubated with 25 ng/mL Rat IgG (Sigma-Aldrich Pty Ltd, Castle Hill NSW, Australia) and with a PE-conjugated antibody for detection of IL-7R (CD127) for 1 h on ice, as described in the FACS analysis section. PE-conjugated isotype was used as negative control. Cells were washed twice, fixed and phosphoflow analysis performed as described in the FACS analysis section. The analysis was performed in triplicate and the mean fluorescence intensity (MFI) observed without stimulation was reported as 100%.

A further assay relates to DN3a thymocytes. Nature of the assay: Relative viability and LC50 on DN3a thymocytes of WT, Lmo2^Tg, Lmo2^Tg;STAT5-CA^Tg and Lmo2^Tg;N1-ICD^Tg mice, 48 h. Conditions: Lmo2Tg;STAT5-CATg. The protocol: Pre-leukemic and leukemic thymocytes were purified by flow cytometry and co-cultured on GFP-positive OP9 and OP9-DL1 stromal cell lines, as described previously. Thymocytes were co-cultured in reconstituted alpha-MEM medium (#12318, Gibco, Grand Island NY, USA) supplemented with 20% FCS (#12318), HEPES 10 mM (#15630-080), sodium pyruvate 1 mM (#11360-070), β-mercaptoethanol 55 μM (#21985-023), Glutamax 2 mM (#15750-060), 1% Penicillin/Streptomycin (#15140-122), 5 ng/mL rmFLT-3 ligand (#250-31 L, Pepro Tech), 5 ng/mL rmIL-7 (#217-17, Pepro Tech) and 25 ng/mL rmSCF (#250-03, Pepro Tech). After 48 h of co-culture, thymocytes were counted and analysed by FACS. […]
viability of wild-type (WT), Lmo2 Tg, Lmo2Tg;STAT5-CA Tg and Lmo2Tg;N1-ICD Tg DN3a thymocytes […]
normalized to cells treated with vehicle (%DMSO). Mean ± SEM of n=4 biological replicates. b, […]
thymocytes from 6-week old wild-type (WT), Lmo2 Tg, Lmo2Tg;STAT5-CATg and Lmo2Tg ;N1-ICD Tg mice. Mean ± SD of n=4 biological replicates are shown. 2-way ANOVA with Tukey’s correction test; […]
(1 picture or pasted object on this page, not shown here)
*P<0.05, *** P<0.001 compared to WT; #P<0.05, ##P<0.01, ###P<0.001 compared to L mo2Tg. c, Levels of pStat5 (left) after stimulation with IL-7 , as well as Hes1 expression (right) after co-culture on OP9- […]
(0.2 µM), Ruxolitinib (0.2 µM) and DAPT (0.1 µM). Unstimulated cells were used as negative controls (dashed line). Student’s t -test, ** P<0.01, *** P<0.001 compared to unstimulated cells. MFI ± SEM, 1-way ANOVA with Tukey’s correction test; **P<0.01, *** P<0.001 compared to vehicle. d, Clonogenic assay of normal murine hematopoietic stem and progenitor cells (HSPCs) cultured in the presence […]
± SD, Student’s t -test ( n=4) **P<0.01 compared to vehicle. e, Relative viability of wild-type (WT), […]
2 (0.2 µM), Ruxolitinib (0.2 µM) and DAPT (0.1 µM) for 48 hours. Viability was normalized to cells treated with vehicle (%DMSO, which was reported as 100). Mean ± SEM, 2-way ANOVA with Tukey’s correction test, **P<0.01, *** P<0.001 compared to vehicle.

Assay [2] deals with Ba/F3-IL7R^Stat5-CA cells. Nature of the assay: Cytotoxic activity in IL-7-dependent and IL-7-independent Ba/F3-IL7R^Stat5-CA cells. In kind it is cell-based, murine. Conditions: for Survival (%) over survival at day 0, reported as 100%: Ba/F3-IL7R^Stat5-CA cells, dose = IC50 or LC50 of each drug.
From the text: The doxycycline-inducible dual-colour TRMPVIR (TRE-dsRed-miR30/shRNA-PGK-Venus-IRES-rtTA3) retroviral vector[84] was kindly given by R. A. Dickins and was modified by replacing the dsRed-miR30/shRNA sequence by a T2A self-cleaving peptide[85] fusioned with the mCherry fluorescent protein (from TRIPZ, Addgene) inserted into the BamHI and EcoRI sites of the plasmid downstream of the TRE promoter to generate the TxTCPVIR (TRE-gene-T2A-mCherry-PGK-Venus-IRES-rtTA3) retroviral vector. Using standard cloning techniques, we inserted the full-length sequence of Stat5-CA from the pMig-R1 construct into the TxTCPVIR vector to generate the TxTCPVIR-Stat5-CA construct. All subcloned constructs were verified by DNA sequencing (Micromon, Monash University, Australia). Detailed cloning strategies, primers sequences and vectors are available on request.
as §1
Flow cytometry analyses were performed as previously described[10],[86] on single-cell suspensions stained using BD Pharmingen antibodies (BD Australia, North Ryde NSW, Australia) against mouse CD4 (RM4-5), CD8 (53-6.7), CD25 (PC61.5), CD44 (IM7), CD45.1 (A20), CD45.2 (104), Thy1.2 (53-2.1; #561616), TCRβ (H57-597), CD117 (ACK45), CD135 (A2F10.1), CD150 (TC15-12F12.2; #562373), B220 (RA3-6B2; #563708), CD3 (145-2C11; #563004), CD19 (ID3; #557655), Gr-1 (RB6-8C5; #563299 and #565033), CD11b (M1/70; #563015 and #560455), Ter119 (Ter119; #565523 and #557909), Sca-1 (D7; #558160) and an eBioscience antibody (eBioscience, Invitrogen) against mouse NOTCH1 (22E5). DN3 populations and IL-7R were stained using BioLegend antibodies (Australian Biosearch, Balcatta WA, Australia) against mouse CD28 (E18) and CD127 (A7R34), respectively. Apoptosis was measured using an antibody against AnnexinV (#556420, BD Australia) and the […] Sytox Blue (BD Australia) following the manufacturer’s protocol.

Several values for one entry are separate records, joined by “and”; a condition that tells them apart may be missing. Equal entries are not always repeated.

For the molecule `O=C(N/N=C/c1ccc(O)c(O)c1)c1cc2ccccc2cc1O` [Dynasore, reference compound], the “inhibition of IL-7 signalling as measured by loss of phospho-Stat5” value in assay [1] is “dose-dependent inhibition”.

For the molecule `O=C(NN=Cc1cc(O)c(O)cc1O)c1cc2ccccc2cc1O` [Dyngo 4a, 3-Hydroxy-N’-[(2,4,5-trihydroxyphenyl)-methylidene]-naphthalene-2-carbohydrazide, reference compound], the “inhibition of IL-7 signalling as measured by loss of phospho-Stat5” value in assay [1] was “dose-dependent inhibition”.

Take `CCCCCCCCNC(=O)/C(C#N)=C/c1cn(CCCN(C)C)c2ccccc12` [Dynole 34]: the “Survival (% DMSO)” value in the assay with DN3a thymocytes is 50.05 % DMSO and 55.36 % DMSO and 37.5 % DMSO and 40.03 % DMSO.

Turning to `CC[C@]1(O)C[C@H]2CN(CCc3c([nH]c4ccccc34)[C@@](C(=O)OC)(c3cc4c(cc3OC)N(C=O)[C@H]3[C@@](O)(C(=O)OC)[C@H](OC(C)=O)[C@]5(CC)C=CCN6CC[C@]43[C@@H]65)C2)C1` [Vincristine], the “Survival (%) over survival at day 0, reported as 100%” value in assay [2] (+IL-7 -DOX, 0 h) is 100.02% and 100.26% and 100.28% and 99.72% and 99.53% and 100.47%; in assay [2] (+IL-7 -DOX, 24 h), 97.78% and 97.03% and 92.76% and 93.67% and 88.90% and 79.18%; in assay [2] (+IL-7 -DOX, 48 h) it was 60.76% and 61.24% and 44.94% and 67.20% and 75.05% and 65.49%; in assay [2] (+IL-7 -DOX, 72 h), 42.05% and 38.67% and 50.69% and 46.55% and 54.10% and 54.58%; in assay [2] (+IL-7 -DOX, 96 h), 9.57% and 5.19% and 6.30%; in assay [2] (-IL-7 +DOX, 0 h) it was 100.62% and 100.47% and 99.53% and 102.59% and 99.98% and 100.02%. The “Survival (%) over survival at day 0, reported as 100%” value in assay [2] (-IL-7 +DOX, 24 h) was 84.77% and 83.72% and 89.11% and 91.00% and 83.57% and 82.00%; in assay [2] (-IL-7 +DOX, 48 h), 82.10% and 78.50% and 82.90% and 69.10% and 67.20% and 82.60%; in assay [2] (-IL-7 +DOX, 72 h) it was 60.60% and 57.90% and 64.60% and 57.00% and 62.20% and 65.20%; in assay [2] (-IL-7 +DOX, 120 h), 34.10% and 40.50% and 30.80% and 32.50% and 34.90% and 26.60%. Further, in assay [2] (result in words), the “sensitivity of Ba/F3-IL7R^Stat5-CA cells with constitutive pStat5 (doxycycline)” value is reported as “equally effective”.
